Where two headings read alike, the source gives them in different places.
Assays:
[1] = 37 °C, after 48 h, 100 μg CYT/mL
Procedure: The stability of free and HPMA copolymer-bound cytarabine in human plasma was evaluated. […] At selected time points, 5 μL tetrahydrouridine (THU, 1 mg/mL in DI H2O, used as inhibitor of cytidine deaminase to prevent cytarabine from deamination) was added to a vial containing 100 μL sample. For free drug, 1 mL of mixture of acetonitrile/methanol (9:1) was added to precipitate proteins. The vial was vortex-mixed and then centrifuged at 13,000 g for 10 min at 4° C. The supernatant was carefully transferred into a 2 mL vial that was placed into a 40° C. water bath and bubbled with nitrogen. After organic solvents were removed, the resulting dry residue was dissolved in 0.5 mL DI H2O with 0.1% TFA. The sample was filtered and then 10 μL was injected to an analytical C18 column (Zorbax 300SB, 5 μm, 4.6×250 mm) for HPLC analysis. The amount of intact CYT was calculated based on the area under the curve (AUC) recorded at 268 nm wavelength and calibration curve from a series of standard CYT concentrations. To determine the CYT stability in conjugate, 1-amino-2-propanol (10 μL) was added to the sample prior to plasma precipitation in order to cleave CYT from polymer backbone. Then the sample was examined following the same procedure as described above.

HL-60 cells = assay: Cell cycle analysis by flow cytometry (propidium iodide); format: cell-based, human; settings: 48 h; CYT=1 μM; DAU=0.04 μM; GDC=1 μM; JSK=0.5 μM
Procedure: HL-60 cells (2×10^5 cells/mL) were seeded in 6-well plates, and treated with drug alone or different combinations of two drugs at the following concentrations for each: […] JSK=0.5 μM. Following 48-h treatment, cells were harvested, fixed and stained with propidium iodide (PI) at room temperature in the dark. Cell cycle analysis was performed by flow cytometry using BD LSR Fortessa machine (BD Biosciences, San Jose, Calif.). Cell percentages in the different phases of cell cycle were analyzed using FlowJo software (Tree star, Ashland, Oreg.).

HL-60 human AML cells = assay: In vitro cytotoxicity (CCK-8 assay); format: cell-based
Procedure: The cytotoxicity of free drugs (CYT, DAU, GDC, and JSK) and two polymeric conjugates (P-CYT, P-GDC) against HL-60 was measured using the CCK-8 assay (Dojindo, Kumamoto, Japan). The cells were seeded in 96-well plates at a density of 20,000 cells/well in RPMI-1640 media containing 2 mM L-glutamine and 10% FBS. Then, 50 μL media containing the drugs were added. The cells were incubated with free drugs (CYT, DAU, GDC, and JSK) or the polymeric conjugates (P-CYT, P-GDC) at a range of drug concentrations. After 48 h incubation, the number of viable cells was estimated using the CCK-8 kit according to manufacturer's protocol. After the cells were incubated with the reagent at 37° C. for 4 h, the absorbance was measured using a microplate reader at 450 nm (630 nm as reference). Viability of treated cells was calculated as a percentage of the viability of untreated controls.

[2] = system: DOX resistant (A2780/AD) human ovarian carcinoma xenografts; settings: resistant tumors (A2780/AD); cited from earlier work
[3] = humans; P-DOX in DOX equivalent; cited from earlier work
[4] = cited from earlier work
[5] = Homo sapiens, HL-60 cells, 48 h incubation, read-out: IC50

Row | SMILES | Change of G0/G1 phase population (HL-60 cells) | Change of S phase population (HL-60 cells) | IC50 (HL-60 human AML cells; [5]) [nM] | Change of G2/M phase population (HL-60 cells) | other results
1 | Nc1ccn([C@@H]2O[C@H](CO)[C@@H](O)[C@@H]2O)c(=O)n1 [CYT, cytarabine] | decrease in the G0/G1 population | arrested the cells in S phase | 1050 | – | CYT still present in human plasma [1]: all free drug disappeared
2 | COc1cccc2c1C(=O)c1c(O)c3c(c(O)c1C2=O)C[C@@](O)(C(C)=O)C[C@@H]3O[C@H]1C[C@H](N)[C@H](O)[C@H](C)O1 [DAU, daunorubicin] | decrease in the G0/G1 population | – | – | accumulate in the G2/M phase | IC50 (HL-60 human AML cells; Homo sapiens, HL-60, 48 h): 40 nM
3 | COc1cccc2c1C(=O)c1c(O)c3c(c(O)c1C2=O)C[C@@](O)(C(=O)CO)C[C@@H]3O[C@H]1C[C@H](N)[C@H](O)[C@H](C)O1 [DOX, doxorubicin] | – | – | – | – | Decrease of tumor size [2]: effective only in sensitive tumors; Maximum tolerated dose (MTD) [3]: 60-80 mg/m2
4 | Cc1c(CN2CCN(C(=O)[C@H](C)O)CC2)sc2c(N3CCOCC3)nc(-c3cnc(N)nc3)nc12 [GDC, GDC-0980] | slight increase in the G0/G1 phase population | – | 750 | – | Solubility of free GDC [4]: poor solubility
5 | CCOC(=O)N1CCN(/[N+]([O-])=N/Oc2ccc([N+](=O)[O-])cc2[N+](=O)[O-])CC1 [JSK, JS-K] | decrease in the G0/G1 population | did not make significant changes in those fractions | – | did not make significant changes in those fractions | IC50 (HL-60 human AML cells; HL-60 cells, 48 h incubation, read-out: IC50): 440 nM

Reference: patent US20180214560A1, “HPMA-DRUG CONJUGATES FOR THE TREATMENT OF ACUTE MYELOID LEUKEMIA” (University of Utah Research Foundation, priority 2015, published 2018)
